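Briefly, cells in 96-well plates were exposed to five compound concentrations for 48 h, and endpoints were estimated by linear interpolation. At the GI50, growth is halved. The concentration for full growth arrest is given as TGI.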

What all share (experiment): NCI tumour cell line growth inhibition, 48 h
The test system of test [1] is 786-0 renal.
Test [2] concerns MDA-MB-435.
Test [3] concerns MDA-N.
Test [4] relates to PC-3 prostate.
For test [5], the system named is DMS 273 small cell lung.
Test [6] has as its system LXFL 529 NSCLC.
Test [7] concerns RXF-631 renal.
The test system of test [8] is HOP-18 NSCLC.
Test [9] concerns P388 leukemia.
Test [10] concerns P388/ADR leukemia.
The subject of test [11] is SN12K1 renal.

Turning to `O=c1[nH]c(=O)n(C2CC(O)C(CO)O2)cc1Br` (stereo not given), the TGI in test [1], in test [2], in test [3] and in test [4] was greater than 100 µM each time.

Consider `NC(=O)/N=C/c1c(O)c2ccccc2oc1=O`, for which the TGI in [5] and in [6] was greater than 100 µM in each case.

Take `Cn1c(=O)c2[nH]c(SC/C(=N/O)c3ccc(Br)cc3)nc2n(C)c1=O`: in test [4], the GI50 is greater than 100 µM and the TGI is greater than 100 µM.

For the compound `O=S(O)c1cc(Cl)c(O)c(Cl)c1`, the TGI in [6] and in [7] was greater than 100 µM in each case.

For the compound `O=C1C(=C([O-])c2ccccc2)C(=O)c2ccccc21.O=C1C(=C([O-])c2ccccc2)C(=O)c2ccccc21.[Ni+2]`, in test [8], the GI50 is 27.9 µM and the TGI is greater than 100 µM.

`COc1ccc2c3/c(=C\c4ccc(N(C)C)cc4)c4ccccc4n3[n+](C)c2c1`: the GI50 in test [2] is 0.484 µM; in [4] it was 0.124 µM. For the same compound, the figures for the TGI in test [2] and in [4] were 1.83 µM and 1.5 µM, respectively.

Turning to `CC1OC(O[C@@H]2C=C3CC[C@@H]4[C@H](CC[C@]5(C)[C@@H](c6ccc(=O)oc6)CC[C@]45O)[C@@]3(C)CC2)C(O)C(OC2OC(CO)C(O)C(O)C2O)C1O` (stereo not given in full), the TGI is 0.0117 µM in test [1]; 0.02 µM in test [2]; 115 µM in test [9]; 142 µM in [10]; 0.00942 µM in [4]; 0.025 µM in test [11]. Besides, in [2], the GI50 was 0.000454 µM.

As for `COC(=O)c1c(O)ccc2c1c1c(n2Cc2cccc(C)c2)C(=O)c2ccccc2C1`, the TGI in test [2] worked out at 42.7 µM; in test [4], 27.6 µM.

Turning to `COc1cc(O)c(Cc2ccccc2O)c(O)c1C(=O)CCc1ccccc1`, the TGI in [5] was 13.1 µM; in test [8], 4.53 µM; in test [9] it was 13.5 µM; in test [10] it was 14 µM; in [11], 19.5 µM.

Values taken from PubChem BioAssay (NCI).
